Reference: ChEMBL document CHEMBL5058564, “EUbOPEN Chemogenomics Library 2 (Incucyte)” (2022)
Values joined by “and” are separate entries in the source; they are usually repeats but may differ in a detail not shown here. Equal entries are not always repeated.

Experiments:
Type in all cases: toxicity, cell-based
Fibroblast = test: Incucyte cell viability with human fibroblast; conditions: 10 µM, compound concentration 10 uM
U2OS = test: Incucyte cell viability with U2OS; conditions: human, 10 µM, compound concentration 10 uM
HEK-293T = test: Incucyte cell viability with HEK293T; conditions: human, 10 µM, compound concentration 10 uM
[1] = 0 h, replicate number 1, timepoint 0 hours
[2] = 0 h, replicate number 2, timepoint 0 hours
[3] = 12 h, replicate number 1, timepoint 12 hours
[4] = 18 h, replicate number 1, timepoint 18 hours
[5] = 24 h, replicate number 1, timepoint 24 hours
[6] = 6 h, replicate number 1, timepoint 6 hours
[7] = 6 h, replicate number 2, timepoint 6 hours
[8] = 12 h, replicate number 2, timepoint 12 hours
[9] = 18 h, replicate number 2, timepoint 18 hours
[10] = 24 h, replicate number 2, timepoint 24 hours
Also: unitless GR value; below 1 slowed growth and below 0 cell loss.

Compound	Growth Rate (Fibroblast; [1])	Growth Rate (Fibroblast; [2])	Growth Rate (Fibroblast; [3])	Growth Rate (Fibroblast; [4])	Growth Rate (Fibroblast; [5])	Growth Rate (U2OS; [1])	Growth Rate (U2OS; [2])	Growth Rate (U2OS; [6])	Growth Rate (U2OS; [3])	Growth Rate (U2OS; [8])	Growth Rate (U2OS; [4])	Growth Rate (U2OS; [9])	Growth Rate (HEK-293T; [2])	Growth Rate (HEK-293T; [3])	Growth Rate (HEK-293T; [4])	Growth Rate (HEK-293T; [5])	Growth Rate (Fibroblast; [9])	Growth Rate (HEK-293T; [1])	Growth Rate (HEK-293T; [8])	Growth Rate (HEK-293T; [9])	also measured
Cc1nn(C)c(C)c1-c1cccc2c1CC[C@H](N(C)C)C2	0.48	-0.09	0.75	0.49	0.61	-0.3	0.01	0.52	0.78	0.8	0.69	0.97	0.25	0.97	0.97	0.9	–	–	–	–	Growth Rate (U2OS; [7]): 0.91; Growth Rate (U2OS; [5]): 0.86; Growth Rate (U2OS; [10]): 0.99; Growth Rate (HEK-293T; [6]): 0.95
COc1cc(Nc2nc(C)cc(-c3cnn4nc(OC)ccc34)n2)cc(C(F)(F)F)c1	–	–	–	–	–	0.11	0.84	0.24	0.61 and 0.48	1 and 0.46	0.85 and 0.45	0.62 and 0.36	–	–	–	–	0.67 and 0.25	0.76	0.84	0.94	Growth Rate (Fibroblast; [10]): 0.58 and 0.24; Growth Rate (U2OS; [7]): 0.89 and 0.77; Growth Rate (U2OS; [5]): 0.62 and 0.35; Growth Rate (U2OS; [10]): 0.76 and 0.27; Growth Rate (HEK-293T; [7]): 0.89; Growth Rate (HEK-293T; [10]): 0.85
CNCCN1CCC(c2cc(CN(C)C(=O)c3cccc(Oc4ccccc4)c3)ccn2)CC1	0.7	0.9	0.83	0.55	0.43	-0.2	0.56	–	0.88	0.99	0.96	–	–	0.76	0.98	1	–	–	0.86	0.92	Growth Rate (Fibroblast; [6]): 0.73; Growth Rate (Fibroblast; [7]): 0.98; Growth Rate (U2OS; [7]): 0.98; Growth Rate (U2OS; [5]): 0.37; Growth Rate (HEK-293T; [6]): 0.74; Growth Rate (HEK-293T; [10]): 0.81
COC(c1ccccc1)(c1ccccc1)[C@H](Oc1nc(C)cc(C)n1)C(=O)O [AMBRISENTAN]	–	0.74	0.97	–	–	-0.03	-1	–	–	–	–	0.96	0.79	0.96	0.99	0.97	–	–	–	–	Growth Rate (Fibroblast; [6]): 0.41; Growth Rate (Fibroblast; [7]): 0.53; Growth Rate (Fibroblast; [8]): 0.6
C[C@@](Cc1c[nH]c2ccccc12)(NC(=O)Nc1ccc([N+](=O)[O-])cc1)C(=O)NCC1(c2ccccn2)CCCCC1	–	–	-0.66	-0.63	-0.6	0.29	–	0.28	-0.03	-0.2	-0.21	-0.3	–	-0.39	-0.33	-0.26	-0.53	–	-0.14	-0.15	Growth Rate (Fibroblast; [6]): -0.69; Growth Rate (Fibroblast; [7]): -0.88; Growth Rate (Fibroblast; [8]): -0.59; Growth Rate (Fibroblast; [10]): -0.51; Growth Rate (U2OS; [7]): 0.12; Growth Rate (U2OS; [5]): -0.26; Growth Rate (U2OS; [10]): -0.21; Growth Rate (HEK-293T; [6]): -0.16; Growth Rate (HEK-293T; [7]): -0.01; Growth Rate (HEK-293T; [10]): -0.13
OCCCNc1cc(-c2ccnc(Nc3cccc(Cl)c3)n2)ccn1	-0.42	-0.55	-0.15	-0.2	-0.02	-0.27	-0.28	0.44	0.44	0.56	0.26	0.36	–	-0.52	-0.38	-0.29	-0.09	–	-0.62	-0.46	Growth Rate (Fibroblast; [6]): -0.19; Growth Rate (Fibroblast; [7]): 0.11; Growth Rate (Fibroblast; [8]): -0.06; Growth Rate (Fibroblast; [10]): -0.06; Growth Rate (U2OS; [5]): 0.23; Growth Rate (U2OS; [10]): 0.24; Growth Rate (HEK-293T; [6]): -0.65; Growth Rate (HEK-293T; [7]): -0.7; Growth Rate (HEK-293T; [10]): -0.38
O=C(O)c1cc2ccccc2c(Cc2c(O)c(C(=O)O)cc3ccccc23)c1O [PAMOIC ACID]	-0.13	0.41	0.52	0.93	–	–	–	–	–	–	–	–	0.89	–	–	–	–	0.69	–	–	Growth Rate (U2OS; [7]): 0.75
CN[C@@H](C)C(=O)N[C@H](C(=O)N1CCC[C@H]1C(=O)Nc1snnc1-c1ccccc1)C1CCCCC1 [GDC-0152]	0.95	0.59	-0.63	-0.58	-0.44	-0.64	0.74	0.5	0.49	–	0.87	–	0.53	0.37	0.36	0.4	-0.22	0.68	0.71	0.66	Growth Rate (Fibroblast; [6]): -0.81; Growth Rate (Fibroblast; [7]): -0.33; Growth Rate (Fibroblast; [8]): -0.17; Growth Rate (Fibroblast; [10]): -0.21; Growth Rate (HEK-293T; [6]): 0.43; Growth Rate (HEK-293T; [10]): 0.52
N#Cc1cc2c(OCC(O)CN3CCN(C(c4ccccc4)c4ccccc4)CC3)cccc2[nH]1 (racemic)	-0.11	0.94	0.52	-0.05	0.24	-0.56	-1	–	–	–	–	–	–	0.54	0.32	0.27	0.91	0.77	0.62	0.26	Growth Rate (HEK-293T; [10]): 0.29
CN(C)c1ccnc2sc3c(=O)n(N4CCCCCC4)cnc3c12	–	–	-0.14	-0.36	-0.42	–	-1	0.61	0.54	–	0.51	0.91	0.47	–	–	–	0.11	0.91	–	–	Growth Rate (Fibroblast; [6]): -0.22; Growth Rate (Fibroblast; [8]): 0.1; Growth Rate (Fibroblast; [10]): -0.22; Growth Rate (U2OS; [5]): 0.78; Growth Rate (HEK-293T; [7]): 0.98
Cc1nc[nH]c1CCN.Cl	0.7	–	–	–	–	-0.24	-1	–	–	–	0.91	–	0.64	0.91	0.92	0.81	0.58	0.42	–	–	Growth Rate (Fibroblast; [7]): 0.14; Growth Rate (Fibroblast; [8]): 0.83; Growth Rate (Fibroblast; [10]): 0.86
CCN(Cc1ccncc1)C(=O)C(CO)c1ccccc1 (stereo unspecified) [TROPICAMIDE]	0.46	-0.24	–	–	–	0.73	0.44	0.58	–	0.99	–	0.92	–	0.97	0.93	0.88	–	0.72	0.95	0.83	Growth Rate (HEK-293T; [6]): 0.92; Growth Rate (HEK-293T; [10]): 1
COc1ccccc1N1CCN(C[C@@H](C(=O)NC(C)(C)C)c2ccccc2)CC1.Cl.Cl	–	0.48	0.69	1	0.57	–	-0.77	0.29	–	–	0.77	0.92	–	–	–	–	–	0.89	0.79	–	Growth Rate (Fibroblast; [6]): 0.54; Growth Rate (Fibroblast; [7]): 0.96; Growth Rate (U2OS; [10]): 1; Growth Rate (HEK-293T; [7]): 0.54
Cc1nn(C)c2nc(NNC(=O)Nc3cc(Cl)nc(Cl)c3)cc(C(C)C)c12	0.09	0.58	–	–	–	–	-1	–	–	0.96	–	–	0.57	–	–	0.97	–	0.64	–	–	–
Cc1c(CC(=O)O)c2cccnc2n1Cc1ccc(S(C)(=O)=O)cc1C(F)(F)F [FEVIPIPRANT]	0.42	0.97	–	–	–	-0.75	-1	–	–	–	–	0.93	0.79	–	–	–	–	–	–	–	Growth Rate (U2OS; [7]): 0.82; Growth Rate (U2OS; [10]): 0.88
